Assays:
HFF = assay: Antiproliferative activity against human HFF cells after 3 days by methylene blue staining; settings: 72 h
BT-474 = assay: Antiproliferative activity against human BT474 cells overexpressing ERBb2 after 3 days by methylene blue staining; type: functional, cell-based; settings: BT-474, 72 h
HN5 = assay: Antiproliferative activity against human HN5 cells overexpressing EGFR after 3 days by methylene blue staining; settings: HN5, 72 h
[1] = target: T1, Epidermal growth factor receptor (Homo sapiens, UniProt P00533); assay: Inhibition of EGFR by scintillation proximity assay
T1 sequence (P00533 whole entry): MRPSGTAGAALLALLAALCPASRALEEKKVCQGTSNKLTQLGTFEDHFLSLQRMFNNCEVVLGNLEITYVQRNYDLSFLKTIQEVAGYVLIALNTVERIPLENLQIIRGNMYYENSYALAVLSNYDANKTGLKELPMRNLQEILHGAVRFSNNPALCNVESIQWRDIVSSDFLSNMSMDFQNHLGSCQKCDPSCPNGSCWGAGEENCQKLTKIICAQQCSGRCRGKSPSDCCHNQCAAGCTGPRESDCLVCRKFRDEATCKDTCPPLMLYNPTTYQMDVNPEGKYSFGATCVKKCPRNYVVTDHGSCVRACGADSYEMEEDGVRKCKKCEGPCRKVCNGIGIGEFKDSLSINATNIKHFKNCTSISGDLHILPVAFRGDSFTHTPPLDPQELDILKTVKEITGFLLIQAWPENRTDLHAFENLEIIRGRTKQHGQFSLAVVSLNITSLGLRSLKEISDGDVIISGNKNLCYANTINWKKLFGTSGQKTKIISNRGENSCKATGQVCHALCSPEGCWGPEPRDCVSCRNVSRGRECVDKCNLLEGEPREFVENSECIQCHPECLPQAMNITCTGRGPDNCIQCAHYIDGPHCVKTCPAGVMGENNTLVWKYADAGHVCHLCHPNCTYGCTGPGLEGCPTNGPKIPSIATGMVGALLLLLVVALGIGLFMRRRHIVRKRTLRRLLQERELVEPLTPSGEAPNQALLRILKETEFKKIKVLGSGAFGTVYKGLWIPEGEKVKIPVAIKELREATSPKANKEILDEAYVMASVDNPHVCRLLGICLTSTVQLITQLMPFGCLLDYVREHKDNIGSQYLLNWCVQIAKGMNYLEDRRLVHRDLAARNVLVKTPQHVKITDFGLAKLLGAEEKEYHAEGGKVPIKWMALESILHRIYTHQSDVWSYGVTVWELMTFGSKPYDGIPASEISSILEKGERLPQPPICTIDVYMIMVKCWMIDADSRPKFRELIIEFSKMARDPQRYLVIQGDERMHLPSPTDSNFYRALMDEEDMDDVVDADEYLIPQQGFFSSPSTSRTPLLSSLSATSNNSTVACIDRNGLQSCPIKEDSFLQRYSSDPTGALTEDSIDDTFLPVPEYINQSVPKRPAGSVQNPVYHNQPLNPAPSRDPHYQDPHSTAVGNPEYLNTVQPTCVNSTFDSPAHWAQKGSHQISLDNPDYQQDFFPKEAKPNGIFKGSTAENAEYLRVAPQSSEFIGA

[2] = target: T2, Receptor tyrosine-protein kinase erbB-2 (Homo sapiens, UniProt P04626); assay: Inhibition of ERBb2 by scintillation proximity assay
T2 sequence (P04626 whole entry): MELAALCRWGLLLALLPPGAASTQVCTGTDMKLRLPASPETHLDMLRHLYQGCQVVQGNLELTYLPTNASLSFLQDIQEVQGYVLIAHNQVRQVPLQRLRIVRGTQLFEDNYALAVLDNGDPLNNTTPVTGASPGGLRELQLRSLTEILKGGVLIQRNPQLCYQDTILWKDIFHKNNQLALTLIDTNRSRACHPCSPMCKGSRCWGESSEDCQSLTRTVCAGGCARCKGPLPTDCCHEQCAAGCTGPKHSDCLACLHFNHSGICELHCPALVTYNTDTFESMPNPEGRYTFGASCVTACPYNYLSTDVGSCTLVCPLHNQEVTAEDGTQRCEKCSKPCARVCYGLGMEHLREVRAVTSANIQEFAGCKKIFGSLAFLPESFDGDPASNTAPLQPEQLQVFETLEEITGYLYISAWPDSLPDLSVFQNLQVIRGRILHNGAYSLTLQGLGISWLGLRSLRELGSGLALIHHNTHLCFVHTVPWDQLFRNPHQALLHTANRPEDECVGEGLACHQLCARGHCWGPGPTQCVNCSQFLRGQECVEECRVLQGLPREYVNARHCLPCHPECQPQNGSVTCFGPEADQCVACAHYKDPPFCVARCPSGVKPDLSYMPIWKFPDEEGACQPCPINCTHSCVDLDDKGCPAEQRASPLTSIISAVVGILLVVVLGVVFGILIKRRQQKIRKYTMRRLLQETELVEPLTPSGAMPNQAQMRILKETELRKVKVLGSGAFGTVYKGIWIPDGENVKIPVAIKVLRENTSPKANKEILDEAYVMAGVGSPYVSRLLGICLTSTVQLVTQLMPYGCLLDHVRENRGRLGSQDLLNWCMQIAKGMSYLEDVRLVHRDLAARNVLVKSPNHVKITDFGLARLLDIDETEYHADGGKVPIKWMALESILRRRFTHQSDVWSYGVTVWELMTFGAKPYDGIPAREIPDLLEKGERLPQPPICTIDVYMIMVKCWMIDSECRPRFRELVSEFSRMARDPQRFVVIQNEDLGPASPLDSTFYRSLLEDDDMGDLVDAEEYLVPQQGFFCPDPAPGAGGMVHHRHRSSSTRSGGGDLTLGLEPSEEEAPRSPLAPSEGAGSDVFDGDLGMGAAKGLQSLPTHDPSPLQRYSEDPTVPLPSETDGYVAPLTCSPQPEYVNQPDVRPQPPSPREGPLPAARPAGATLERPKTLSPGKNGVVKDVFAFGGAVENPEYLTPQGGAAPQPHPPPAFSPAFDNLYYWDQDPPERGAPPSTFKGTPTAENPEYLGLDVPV

[3] = target: T1, Epidermal growth factor receptor; assay: Inhibition of EGFR by HTRF assay
[4] = target: T2, Receptor tyrosine-protein kinase erbB-2; assay: Inhibition of ERBb2 by HTRF assay

Row | Compound | EC50 (HFF) | EC50 (BT-474) | EC50 (HN5) | IC50 [1] | IC50 [2] | IC50 [3] | IC50 [4]
1 | O=C(O[C@H]1CN[C@H](C#Cc2cc3ncnc(Nc4ccc(OCc5cccc(F)c5)c(Cl)c4)c3s2)C1)N1CCOCC1 [GW869810X] | 4.9 µM | 0.03 µM | – | – | – | – | –
2 | O=C(O[C@H]1CN[C@@H](C#Cc2cc3ncnc(Nc4ccc(OCc5cccc(F)c5)c(Cl)c4)c3s2)C1)N1CCOCC1 | – | 0.12 µM | – | – | – | – | –
3 | CN(C)C(=O)O[C@@H]1CN[C@H](C#Cc2cc3ncnc(Nc4ccc(OCc5cccc(F)c5)c(Cl)c4)c3s2)C1 | – | 0.23 µM | – | – | – | – | –
4 | CN(C)C(=O)O[C@H]1CN[C@H](C#Cc2cc3ncnc(Nc4ccc(OCc5cccc(F)c5)c(Cl)c4)c3s2)C1 [GSK-182497A] | 2.8 µM | 0.03 µM | – | – | – | – | –
5 | CCNC(=O)O[C@H]1CN[C@H](C#Cc2cc3ncnc(Nc4ccc(OCc5cccc(F)c5)c(Cl)c4)c3s2)C1 [GSK-192082A] | 4.2 µM | 0.03 µM | 0.095 µM | – | – | – | –
6 | O=C(O[C@H]1CN[C@H](C#Cc2cc3ncnc(Nc4ccc(OCc5cccc(F)c5)c(Cl)c4)c3s2)C1)N1CCCC1 | 3.5 µM | 0.06 µM | 0.12 µM | 0.099 µM | 0.032 µM | – | –
7 | CN(C)C(=O)O[C@@H]1CN[C@@H](C#Cc2cc3ncnc(Nc4ccc(OCc5cccc(F)c5)c(Cl)c4)c3s2)C1 [GSK-238063A] | – | 0.03 µM | – | – | – | – | –
8 | C=CC(=O)Nc1cc2c(Nc3ccc(F)c(Cl)c3)ncnc2cc1OCCCN1CCOCC1 [CANERTINIB] | – | 0.01 µM | 0.05 µM | – | – | – | –
9 | CNC(=O)O[C@H]1CN[C@H](C#Cc2cc3ncnc(Nc4ccc(OCc5cccc(F)c5)c(Cl)c4)c3s2)C1 | 5 µM | 0.03 µM | 0.06 µM | – | – | – | –
10 | CCNC(=O)O[C@@H]1CN[C@@H](C#Cc2cc3ncnc(Nc4ccc(OCc5cccc(F)c5)c(Cl)c4)c3s2)C1 | – | 0.06 µM | – | – | – | 0.05 µM | –
11 | CS(=O)(=O)CCNC(=O)O[C@H]1CN[C@H](C#Cc2cc3ncnc(Nc4ccc(OCc5cccc(F)c5)c(Cl)c4)c3s2)C1 | 8.2 µM | 0.29 µM | 0.03 µM | – | – | 0.04 µM | 0.032 µM
12 | NC(=O)O[C@H]1CN[C@H](C#Cc2cc3ncnc(Nc4ccc(OCc5cccc(F)c5)c(Cl)c4)c3s2)C1 | 5.5 µM | 0.025 µM | 0.1 µM | – | – | 0.04 µM | 0.016 µM
13 | CN(C)C(=O)O[C@H]1CN[C@@H](C#Cc2cc3ncnc(Nc4ccc(OCc5cccc(F)c5)c(Cl)c4)c3s2)C1 | – | 0.01 µM | – | – | – | – | –
14 | O=C(O[C@@H]1CN[C@@H](C#Cc2cc3ncnc(Nc4ccc(OCc5cccc(F)c5)c(Cl)c4)c3s2)C1)N1CCOCC1 | – | 0.05 µM | – | – | – | – | –
15 | CS(=O)(=O)CCNCc1ccc(-c2ccc3ncnc(Nc4ccc(OCc5cccc(F)c5)c(Cl)c4)c3c2)o1 [LAPATINIB DITOSYLATE] | – | 0.02 µM | – | – | – | – | –
16 | CCNC(=O)O[C@@H]1CN[C@H](C#Cc2cc3ncnc(Nc4ccc(OCc5cccc(F)c5)c(Cl)c4)c3s2)C1 | – | 0.13 µM | – | – | – | – | –
17 | O=C(O[C@@H]1CN[C@H](C#Cc2cc3ncnc(Nc4ccc(OCc5cccc(F)c5)c(Cl)c4)c3s2)C1)N1CCOCC1 | – | 0.14 µM | – | – | – | – | –
18 | O=C(O[C@H]1CN[C@H](C#Cc2cc3ncnc(Nc4ccc(OCc5cccc(F)c5)c(Cl)c4)c3s2)C1)N1CCNCC1 | 5.1 µM | 0.1 µM | 0.4 µM | – | – | 0.063 µM | 0.02 µM
19 | CCN(C)C(=O)O[C@H]1CN[C@H](C#Cc2cc3ncnc(Nc4ccc(OCc5cccc(F)c5)c(Cl)c4)c3s2)C1 | 3 µM | 0.09 µM | 0.24 µM | – | – | 0.05 µM | 0.032 µM
20 | CCNC(=O)O[C@H]1CN[C@@H](C#Cc2cc3ncnc(Nc4ccc(OCc5cccc(F)c5)c(Cl)c4)c3s2)C1 | – | 0.02 µM | – | – | – | 0.032 µM | –
21 | CCN(CC)C(=O)O[C@H]1CN[C@H](C#Cc2cc3ncnc(Nc4ccc(OCc5cccc(F)c5)c(Cl)c4)c3s2)C1 | 4.3 µM | 0.08 µM | 0.25 µM | 0.063 µM | 0.05 µM | – | –
